Where a name gives a salt, the structure may show the parent alone. ± gives the uncertainty stated by the source.

Data on 21 compounds can be found in the supplement of paper PMC3770661.

The test system of this experiment is HepG2 (L1.3 5'UTR promoter firefly luciferase reporter). Put plainly: L1 promoter activity (FLuc/RLuc) relative to DMSO vehicle control (% of control); higher = stronger L1 promoter activation. Here is the method: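 HepG2 cells in 96-well plates were cotransfected with pGL4.11-L1.3 5'UTR (firefly luciferase driven by the human L1.3 5'UTR promoter) and pGL4.74 (HSV-TK Renilla luciferase internal control), then treated with compound for 6 or 24 h. FLuc/RLuc ratio was normalised to the DMSO vehicle control (% of control); concentrations where RLuc fell below 50% of control were excluded (N.D.). Mean of at least two independent experiments in duplicate or quadruplicate.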

Where [1] appears, read: concentration (uM unless unit written): 0.75, treatment time: 6 h.
The mark [2] stands for this setting: concentration (uM unless unit written): 0.75, treatment time: 24 h.
Setting [3] is: concentration (uM unless unit written): 1.5, treatment time: 6 h.
The mark [4] stands for this setting: concentration (uM unless unit written): 0.5, treatment time: 6 h.
Setting [5] is: concentration (uM unless unit written): 0.5, treatment time: 24 h.
[6] abbreviates: concentration (uM unless unit written): 1, treatment time: 6 h.
Setting [7] is: concentration (uM unless unit written): 1, treatment time: 24 h.
Setting [8] is: concentration (uM unless unit written): 3, treatment time: 6 h.
Setting [9] is: concentration (uM unless unit written): 3, treatment time: 24 h.
The mark [10] stands for this setting: concentration (uM unless unit written): 50, treatment time: 6 h.
Where [11] appears, read: concentration (uM unless unit written): 25, treatment time: 6 h.
Setting [12] is: concentration (uM unless unit written): 25, treatment time: 24 h.
Setting [13] is: concentration (uM unless unit written): 50, treatment time: 24 h.
Setting [14] is: concentration (uM unless unit written): 100, treatment time: 6 h.
Where [15] appears, read: concentration (uM unless unit written): 100, treatment time: 24 h.
Setting [16] is: concentration (uM unless unit written): 500, treatment time: 6 h.
Where [17] appears, read: concentration (uM unless unit written): 500, treatment time: 24 h.
The mark [18] stands for this setting: concentration (uM unless unit written): 125, treatment time: 6 h.
Setting [19] is: concentration (uM unless unit written): 125, treatment time: 24 h.
Setting [20] is: concentration (uM unless unit written): 1000, treatment time: 6 h.
Setting [21] is: concentration (uM unless unit written): 1000, treatment time: 24 h.
The mark [22] stands for this setting: concentration (uM unless unit written): 0.1, treatment time: 24 h.
Setting [23] is: concentration (uM unless unit written): 1250, treatment time: 6 h.
[24] abbreviates: concentration (uM unless unit written): 1250, treatment time: 24 h.
Where [25] appears, read: concentration (uM unless unit written): 2500, treatment time: 6 h.
[26] abbreviates: concentration (uM unless unit written): 2500, treatment time: 24 h.
[27] abbreviates: concentration (uM unless unit written): 250, treatment time: 6 h.
[28] abbreviates: concentration (uM unless unit written): 250, treatment time: 24 h.

On to `CC[C@H]1/C=C/C=C/C[C@@H](C)[C@H](O)[C@@](C)(O)C(=O)[C@@H](C)[C@H](O)[C@@H](C)C(=O)[C@@H](C)[C@H](O)[C@@H](C)/C=C/C(=O)O[C@@H]2[C@H](C)[C@H](CC1)O[C@]1(CC[C@H](C)[C@H](C[C@@H](C)O)O1)[C@H]2C` [Oligomycin], for which the L1 promoter activity came out at 89.6 ± 5.8 under setting [1]; 82.1 ± 19 under setting [2]; 82.5 ± 15 under setting [3]; 77.2 ± 1.9 (concentration (uM unless unit written): 1.5, treatment time: 24 h).

In the case of `CO[C@@]12[C@H](COC(N)=O)C3=C(C(=O)C(C)=C(N)C3=O)N1C[C@@H]1N[C@@H]12` [Mitomycin C], the L1 promoter activity runs as follows: (concentration (uM unless unit written): 2.5, treatment time: 6 h) 119 ± 25; (concentration (uM unless unit written): 2.5, treatment time: 24 h) 131 ± 10; (concentration (uM unless unit written): 10, treatment time: 6 h) 96.4 ± 11; (concentration (uM unless unit written): 10, treatment time: 24 h) 114 ± 25.

For `c1ccc2c(c1)cc1ccc3cccc4ccc2c1c34` [Benzo(a)pyrene], the L1 promoter activity runs as follows: under setting [4], 102 ± 12; under setting [5], 132 ± 17; under setting [6], 117 ± 12; under setting [7], 140 ± 22; under setting [8], 133 ± 18; under setting [9], 187 ± 37.

Under setting [10], `CC(CN1c2ccccc2Sc2ccccc21)N(C)C` (stereo unspecified) [Promethazine hydrochloride] came in with an L1 promoter activity of 73.9 ± 13.

Regarding `CC(=O)CC(c1ccccc1)c1c(O)c2ccccc2oc1=O` (stereo unspecified) [Warfarin], the L1 promoter activity was found to be 98.9 ± 11 under setting [11]; 85 ± 5.2 under setting [12]; 89.5 ± 12 under setting [10]; 85.8 ± 14 under setting [13]; 91.7 ± 11 under setting [14]; 74.2 ± 9.4 under setting [15]. The L1 promoter activity was found to be 90.8 ± 25 under setting [16] and 64.1 ± 6.6 under setting [17].

Regarding `CCCCc1nc(Cl)c(CO)n1Cc1ccc(-c2ccccc2-c2nnn[nH]2)cc1` [Losartan], the L1 promoter activity runs as follows: (concentration (uM unless unit written): 15.625, treatment time: 6 h) 93.6 ± 6.2; (concentration (uM unless unit written): 15.625, treatment time: 24 h) 92.6 ± 10; (concentration (uM unless unit written): 31.25, treatment time: 6 h) 106 ± 7.8; (concentration (uM unless unit written): 31.25, treatment time: 24 h) 102 ± 10; (concentration (uM unless unit written): 62.5, treatment time: 6 h) 109 ± 8.7; (concentration (uM unless unit written): 62.5, treatment time: 24 h) 98.6 ± 11. The L1 promoter activity amounted to 101 ± 10 under setting [18] and 95.1 ± 7.4 under setting [19].

Regarding `CC(C)=CC(=O)C=C(C)C` [Phorone], the L1 promoter activity reads like this: under setting [16], 131 ± 16; under setting [17], 118 ± 21; under setting [20], 131 ± 6.7; under setting [21], 118 ± 23.

`CCCCCC[C@H]1C(=O)O[C@H](C)[C@H](NC(=O)c2cccc(NC=O)c2O)C(=O)O[C@@H](C)[C@@H]1OC(=O)CC(C)C` [Antimycin A] came in with an L1 promoter activity (concentration (uM unless unit written): 0.075, treatment time: 6 h) of 101 ± 17; an L1 promoter activity (concentration (uM unless unit written): 0.075, treatment time: 24 h) of 115 ± 21; an L1 promoter activity under setting [6] of 101 ± 5.7; an L1 promoter activity under setting [7] of 109 ± 8.4.

Consider `CC[C@@]1(O)C(=O)OCc2c1cc1n(c2=O)Cc2cc3ccccc3nc2-1` [Camptothecin], for which the L1 promoter activity stood at 110 ± 17 (concentration (uM unless unit written): 0.05, treatment time: 6 h); 142 ± 21 (concentration (uM unless unit written): 0.05, treatment time: 24 h); 98.1 ± 16 (concentration (uM unless unit written): 0.1, treatment time: 6 h); 135 ± 21 under setting [22]; 103 ± 22 (concentration (uM unless unit written): 0.3, treatment time: 6 h); 152 ± 13 (concentration (uM unless unit written): 0.3, treatment time: 24 h).

Take `CN1CC=C(c2ccccc2)CC1` [1-Methyl-4-phenyl-1,2,3,6-tetrahydropyridine]: the L1 promoter activity reads like this: under setting [16], 115 ± 11; under setting [17], 121 ± 19.

As to `COc1ccccc1OCC(O)CO` (stereo unspecified) [Guaiacol glyceryl ether], the L1 promoter activity by setting is: under setting [23], 123 ± 7.7; under setting [24], 99.7 ± 7.2; under setting [25], 136 ± 19; under setting [26], 112 ± 19; (concentration (uM unless unit written): 5000, treatment time: 6 h) 149 ± 13; (concentration (uM unless unit written): 5000, treatment time: 24 h) 145 ± 15.

Regarding `C[C@]12CC[C@@H]3c4ccc(O)cc4CC[C@H]3[C@@H]1CC[C@@H]2O` [17β-Estradiol], the L1 promoter activity is, setting by setting: under setting [11], 101 ± 6.5; under setting [12], 104 ± 11; under setting [10], 119 ± 8.4; under setting [13], 103 ± 16; under setting [14], 107 ± 7.5; under setting [15], 102 ± 15.

Take `NS(=O)(=O)c1cc2c(cc1Cl)NC(C(Cl)Cl)NS2(=O)=O` (stereo unspecified) [Trichlormethiazide]: the L1 promoter activity under setting [14] was 103 ± 10; the L1 promoter activity under setting [15] was determined as 66.9 ± 13; the L1 promoter activity under setting [27] came to 108 ± 17; the L1 promoter activity under setting [28] was 59.6 ± 9.6; the L1 promoter activity under setting [16] was 102 ± 6.6; the L1 promoter activity under setting [20] amounted to 99.7 ± 27.

As for `Cc1c2oc3c(C)ccc(C(=O)N[C@@H]4C(=O)N[C@H](C(C)C)C(=O)N5CCC[C@H]5C(=O)N(C)CC(=O)N(C)[C@@H](C(C)C)C(=O)O[C@@H]4C)c3nc-2c(C(=O)N[C@@H]2C(=O)N[C@H](C(C)C)C(=O)N3CCC[C@H]3C(=O)N(C)CC(=O)N(C)[C@@H](C(C)C)C(=O)O[C@@H]2C)c(N)c1=O` [Actinomycin D], the L1 promoter activity by setting is: (concentration (uM unless unit written): 0.0025, treatment time: 6 h) 132 ± 34; (concentration (uM unless unit written): 0.005, treatment time: 6 h) 112 ± 12; (concentration (uM unless unit written): 0.01, treatment time: 6 h) 110 ± 36; (concentration (uM unless unit written): 0.01, treatment time: 24 h) 144 ± 19.

Regarding `OC(Cn1cncn1)(Cn1cncn1)c1ccc(F)cc1F` [Fluconazole], the L1 promoter activity reads like this: under setting [23], 108 ± 11; under setting [24], 99.5 ± 7.4; under setting [25], 99.2 ± 6.7; under setting [26], 92.7 ± 13.

For the compound `CCC(C)(C)C(=O)O[C@H]1C[C@@H](C)C=C2C=C[C@H](C)[C@H](CC[C@@H]3C[C@@H](O)CC(=O)O3)[C@H]21` [Simvastatin], the L1 promoter activity under setting [6] came out at 94.1 ± 18; the L1 promoter activity under setting [7] is 100 ± 12; the L1 promoter activity under setting [8] stood at 93.1 ± 7.7; the L1 promoter activity under setting [9] was found to be 117 ± 14; the L1 promoter activity (concentration (uM unless unit written): 6, treatment time: 6 h) worked out at 108 ± 18; the L1 promoter activity (concentration (uM unless unit written): 6, treatment time: 24 h) stood at 107 ± 15.

With `COS(C)(=O)=O` [Methyl methanesulfonate], the L1 promoter activity reads like this: under setting [18], 113 ± 11; under setting [19], 90.8 ± 4.2; under setting [27], 107 ± 15; under setting [28], 88.2 ± 13; under setting [16], 100 ± 12; under setting [17], 83.2 ± 4.5.

`CNc1ccc2oc(C[C@H]3O[C@@]4(CC[C@H]3C)O[C@H]([C@H](C)C(=O)c3ccc[nH]3)[C@H](C)C[C@H]4C)nc2c1C(=O)O` returned an L1 promoter activity under setting [1] of 57.4 ± 16; an L1 promoter activity under setting [2] of 57.4 ± 4.2; an L1 promoter activity under setting [3] of 52.4 ± 8.8; an L1 promoter activity (concentration (uM unless unit written): 5, treatment time: 6 h) of 54.4 ± 4.2.

The compound `ClC(Cl)(Cl)Cl` [Carbon tetrachloride] came in with an L1 promoter activity under setting [16] of 99.7 ± 5.5; an L1 promoter activity under setting [17] of 91.3 ± 3.6; an L1 promoter activity under setting [20] of 111 ± 5.9; an L1 promoter activity under setting [21] of 90.7 ± 12; an L1 promoter activity (concentration (uM unless unit written): 2000, treatment time: 6 h) of 108 ± 8.1; an L1 promoter activity (concentration (uM unless unit written): 2000, treatment time: 24 h) of 98.4 ± 8.2.

With `C[C@]12CCC(=O)C=C1CC[C@@H]1[C@@H]2CC[C@@]2(C)[C@H]1CC[C@]2(C)O` [Methyltestosterone], the L1 promoter activity was 94.7 ± 15 under setting [11]; 73.9 ± 15 under setting [12]; 108 ± 4.4 under setting [10]; 74.5 ± 14 under setting [13]; 98.5 ± 14 under setting [14]; 85.3 ± 3.9 under setting [15].

With `COc1cccc2c1C(=O)c1c(O)c3c(c(O)c1C2=O)C[C@@](O)(C(=O)CO)C[C@@H]3O[C@H]1C[C@H](N)[C@H](O)[C@H](C)O1` [Doxorubicin], the L1 promoter activity reads like this: under setting [22], 88.8 ± 15; under setting [4], 101 ± 33; under setting [5], 40.2 ± 13; under setting [6], 98.1 ± 26; under setting [7], 30.3 ± 5.5.
